# From patent US8895600B2, “Non peptidic 14-3-3 inhibitors and the use thereof” (Università degli Studi di Siena, priority 2010, dated 2014)
# Tests used:
# [1] = tested on: Ba/F3 Parental cells (lacking Bcr-Abl); assay: Clonogenic assay (0.9% methylcellulose), parental Ba/F3; type: cell-based, murine; settings: dose reducing cell clonogenic potential to 50%
# From the text: (§1) Parental pro-B murine cell line Ba/F3 and clones expressing the wt and T315I and E255K-mutated Bcr-Abl constructs were kindly donated by Michael W Deininger (Department of Hematology and Clinical Oncology, Health and Science University, Cancer Institute, Portland, Oreg., USA). They were maintained in RPMI medium (Gibco, Paisley, 9 JPET#172536 UK) supplemented with 10% FCS (Gibco), 1% I-glutamine (Sigma, St. Louis, Miss., USA) and 10% WEHI 3 conditioned medium as source of IL-3 when required. […] The content of CD34+ cells in each sample was measured by cytofluorimetric analysis of CD34 expression with a FacScan (Becton Dickinson, Franklin Land, PI, USA). […] BV02 cytotoxicy was assayed in clonogenic assays, the best in vitro technique to quantify drug impact on cell reproductive integrity.
# (§2) Briefly, the authors assessed the reduction of colony (aggregates containing >50 cells generated in 0.9% methylcellulose supplemented with 30% FCS) number in Bcr-Abl-expressing Ba/F3 cell lines and CD34+ in presence of BV02 increasing doses after 7 or 14 day incubation, respectively, at 37° C. in fully humidified atmosphere and 5% CO2. […]
# (§3) Cell cycle distribution was performed on 1×10^6 cells fixed overnight in 70% ethanol and treated with 1 μg/μL 11 JPET#172536 PI and RNAse (Sigma) at 37° C. for 30′. […] Apoptosis was quantified as the level of fluorescence emitted from FLICA probes bound to caspases. […]
# [2] = tested on: Ba/F3 cells expressing the wild type Bcr-Abl; assay: Clonogenic assay (0.9% methylcellulose), Ba/F3 wt Bcr-Abl; type: cell-based, murine; settings: Ba/F3 p210Bcr-Abl WT, dose reducing cell clonogenic potential to 50%
# From the text: (§4) Parental pro-B murine cell line Ba/F3 and clones expressing the wt and T315I and E255K-mutated Bcr-Abl constructs were kindly donated by Michael W Deininger (Department of Hematology and Clinical Oncology, Health and Science University, Cancer Institute, Portland, Oreg., USA). […] Indirect immuno-magnetic labeling (mini-MACS from Milteny Biotech, Bergish Gladback, Germany) was used to isolate CD34+ hematopoietic progenitors from bone marrow samples of 3 CML patients in blast crisis who developed IM resistance. Patient informed consent to use bone marrow samples for our experimental studies was approved by the Ethical Committee of S. Orsola-Malpighi Hospital (Bologna, Italy). The content of CD34+ cells in each sample was measured by cytofluorimetric analysis of CD34 expression with a FacScan (Becton Dickinson, Franklin Land, PI, USA).
# (§5) Briefly, the authors assessed the reduction of colony (aggregates containing >50 cells generated in 0.9% methylcellulose supplemented with 30% FCS) number in Bcr-Abl-expressing Ba/F3 cell lines and CD34+ in presence of BV02 increasing doses after 7 or 14 day incubation, respectively, at 37° C. in fully humidified atmosphere and 5% CO2. Linear and non linear regression analyses were used to calculate BV02 LD50 in Bcr-Ablexpressing Ba/F3 cell lines and CD34+ progenitors from CML patients, respectively.
# (§6) PI uptake was measured by mean of a FACScan flow cytometer set at >580 nm and a dedicated software (both from Beckton Dickinson, San Jose, Calif., USA). Caspase-8 activity was detected with a commercial kit (Carboxyfluorescein FLICA Apoptosis Detection kits from Immunochemistry Technologies LLC, Bloomington, Minn., USA) according to manufacturer instructions. […] Apoptosis was quantified as the level of fluorescence emitted from FLICA probes bound to caspases. […] Caspase-8 activity was quantified by mean of a dedicated software (DIVA from Becton Dickinson). Cell response to BV-01 and BV-02 was evaluated in clonogenic assays (0.9% methylcellulose additioned with drug scalar doses) (see Methods above for methodological details).
# [3] = tested on: Ba/F3 cells expressing the Bcr-Abl mutation coding for E255K; assay: Clonogenic assay (0.9% methylcellulose), Ba/F3 E255K Bcr-Abl; type: cell-based, murine; settings: Ba/F3 p210Bcr-Abl E255K; dose reducing cell clonogenic potential to 50%
# From the text: as §1, §2, §3
# [4] = tested on: Ba/F3 cells expressing the T315I Bcr-Abl mutation; assay: Clonogenic assay (0.9% methylcellulose), Ba/F3 T315I Bcr-Abl; type: cell-based, murine; settings: Ba/F3 p210Bcr-Abl T315I, dose reducing cell clonogenic potential to 50%
# From the text: as §4, §5, §6
# 14-3-3σ = biological target: T1, 14-3-3σ (Homo sapiens, UniProt P31947); assay: Transferred NOE (tr-NOEs) NMR binding experiment; settings: 298K; protein concentration 10 fold less than ligand
# T1 sequence (P31947 1-248): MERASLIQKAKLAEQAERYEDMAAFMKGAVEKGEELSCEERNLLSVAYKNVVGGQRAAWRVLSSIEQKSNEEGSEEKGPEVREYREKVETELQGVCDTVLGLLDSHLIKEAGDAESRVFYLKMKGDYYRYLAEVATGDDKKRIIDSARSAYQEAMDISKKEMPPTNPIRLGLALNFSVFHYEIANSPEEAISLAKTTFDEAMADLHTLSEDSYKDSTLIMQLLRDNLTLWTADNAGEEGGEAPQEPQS
# Protocol: The binding ability of BV-01 was analyzed by transferred Nuclear Overhauser Enhancement experiments (tr-NOEs). Experiments were recorded (at 298K on Bruker Avance 600) both on the free ligand and in the presence of protein in concentration 10 fold less than ligand. In the tr-NOEs experiments, only ligands in fast exchange between the bound and the free form are observed. Since the NOE effects are directly related to the size of the molecule in solution, by binding to the protein, the ligands NOE change in intensity and appearance allowing an easy detection of the binding.
# [5] = tested on: CD34+ cells from bone marrow of CML patients in blast crisis with T315I mutation; assay: Clonogenic assay on CD34+ progenitors of IM-resistant CML patients; type: cell-based, human; settings: three CML patients in blast crisis
# From the text: as §1, with “required. Indirect immuno-magnetic labeling (mini-MACS from Milteny Biotech, Bergish Gladback, Germany) was used to isolate CD34+ hematopoietic progenitors from bone marrow samples of 3 CML patients in blast crisis who developed IM resistance.” for “required.”
# as §2
# [6] = tested on: Ba/F3 cells expressing the wild type Bcr-Abl protein; assay: Apoptosis induction, cytofluorimetric Annexin V and PI uptake, wt Bcr-Abl; type: cell-based, murine; settings: IM 1 μM for 24 h, BV02 5 μM for 24 h
# [7] = tested on: Ba/F3 cells expressing T315I mutation; assay: Apoptosis induction, cytofluorimetric Annexin V and PI uptake, T315I; type: cell-based, murine; settings: IM 1 μM for 24 h, BV02 5 μM for 24 h
# Protocol: as §5, with “respectively. Apoptosis induction and involved signals were assayed in Bcr-Abl-expressing Ba/F3 cell lines after 24 h exposure to 1 μM IM and 5 μM BV02 by means of cytofluorimetric analysis of Annexin V (Hoffmann-La Roche, Basel, SW) and PI (Sigma) uptake, Western blot and IP/immunoblotting analyses, according to published methods (Mancini, 2009).” for “respectively.”
# [8] = tested on: c-Abl / 14-3-3σ signalling in wt Bcr-Abl-expressing Ba/F3 cells; assay: Western blot and IP/immunoblotting of sub-cellular fractions, wt Bcr-Abl Ba/F3; type: cell-based, murine; settings: 24 h, 1 μM IM or 5 μM BV02; for interaction between c-Abl and 14-3-3σ: IP/immunoblotting
# Protocol: Nuclear lysates were obtained from naked nuclei recovered from 2×10^7 cells kept in buffer B (10 mM NaCl, 5 mM MgCl2, 10 mM phosphate buffer and 0.1% Tergitol-type detergent NP40 [all from Sigma] supplemente with protease inhibitors) by means of 3 sonication rounds (10′ pulses using a Hight Intensity Ultrasonic Processor/Sonicator from Cole Parmer [Vernon Hills, Ill., USA] equipped with 2 mm tips). Mitochondrial membranes were separated from whole cell lysates by 30′ centrifugation at 14,000 g in 2 mL buffer C (20 mM Hepes pH 7.5, 1.5 mM MgCl2, 10 mM KCl, 1 mM EDTA, 1 mM EGTA, 1 mM dithiothreitol, 0.1% PMS and protease inhibitors in 250 mM sucrose) at 4° C.
# Proteins or IP products obtained through overnight incubation with primary antibodies in Buffer D (250 mM NaCl, 15 mM MgCl2 40 mM Hepes, 60 mM glycerophosphate supplemented with protease inhibitors) were resolved in SDSPAGE. Gels were then transferred onto nitrocellulose membranes (Schleicher & Schuel, Dassel, Germany), labelled with primary and secondary antibodies in TBS with 5% BSA (Sigma) and 0.1% Tween20 (Sigma). The antibodies were purchased from Upstate Biotechnology (Lake Placid, N.Y., USA), Cell Signalling (Danvers, Mass., USA) and Santa Cruz Biotechnology (Santa Cruz, Calif., USA). Signals were visualized by the enhanced chemo-luminescence detection system ECL from Pierce (Rockford, Ill., USA). Signal intensities in single blots obtained from three individual experiments were quantified by mean of a dedicated software (Launch VisionWorks LS, Upland, Calif., USA).
# (§7) The statistical significance of differences in signal intensities relative to cell treatments was assessed by mean of paired Student's t-test; p<0.05 was kept as limit for statistical significance.
# [9] = tested on: c-Abl / 14-3-3σ signalling in Ba/F3 cells expressing T315I Bcr-Abl mutation; assay: Western blot and IP/immunoblotting of sub-cellular fractions, T315I Bcr-Abl Ba/F3; type: cell-based, murine
# Protocol: as §5, with “respectively. […]” for “respectively.”
# Proteins or IP products obtained through overnight incubation with primary antibodies in Buffer D (250 mM NaCl, 15 mM MgCl2 40 mM Hepes, 60 mM glycerophosphate supplemented with protease inhibitors) were resolved in SDSPAGE. […] Signals were visualized by the enhanced chemo-luminescence detection system ECL from Pierce (Rockford, Ill., USA). Signal intensities in single blots obtained from three individual experiments were quantified by mean of a dedicated software (Launch VisionWorks LS, Upland, Calif., USA).
# as §7
structure (smiles),measurement,setting,value
CCCCCCOC(=O)c1ccc(Nc2c([N+](=O)[O-])cc(C(=O)O)cc2[N+](=O)[O-])cc1 [BV-01],LD50,[1],1.89 µM
same,LD50,[2],1.41 µM
same,LD50,[3],1.28 µM
same,LD50,[4],1.70 µM
same,tr-NOEs pattern (binding to 14-3-3σ),14-3-3σ,weak interaction
Cc1c(NC(=O)c2cc(C(=O)O)ccc2C(=O)O)c(=O)n(-c2ccccc2)n1C [BV-02],LD50,[1],1.08 µM
same,LD50,[2],1.04 µM
same,LD50,[2]; listed as BV02,1.04 ± 0.09 µM
same,LD50,[3],1.21 µM
same,LD50,[4],1.47 µM
same,LD50,[4]; listed as BV02,1.47 ± 0.12 µM
same,cytotoxicity in CD34+ cells (survival curves),[5],confirmed
same,apoptosis induction (impact on survival),[6],statistically significant impact
same,apoptosis induction (impact on survival),[7],statistically significant impact
same,interaction between c-Abl and 14-3-3σ,[8]; cytoplasm,mediates c-Abl release from 14-3-3σ
same,interaction between c-Abl and 14-3-3σ,"[8]; cytoplasm, listed as BV02",reduction
same,c-Abl (145 kDa) level,[8]; cytoplasm,reduction
same,c-Abl interaction with caspase 9,[8]; cytoplasm,increase
same,c-Abl phosphorylation at Tyr245,[8]; cytoplasm,not affected
same,caspase 9 (p35) and caspase 8 (p18) activated fragments,[8]; cytoplasm,increase
same,levels of 14-3-3σ,[8]; cytoplasm,left steady
same,phosphorylation of p210 Bcr-Abl at Tyr245,[8]; cytoplasm,did not significantly affect
same,"c-Abl (145 and 60 kDa), caspase 9 (p35), caspase 8 (p18) and t-Bid (p15) at mitochondrial membranes",[8]; mitochondrial membranes,significantly raised
same,c-Abl (145 and 120 kDa) and p27kip1 in the nuclear compartment,[8]; nuclear compartment,significantly increased
same,"c-Abl release from 14-3-3σ, relocation and apoptotic events",[9]; T315I Ba/F3,elecited all above mentioned events
same,Tyr245 phosphorylation of normal and Bcr-rearranged c-Abl,[9]; T315I Ba/F3 after exposure to BV02,slight increase
"Cc1ccc(NC(=O)c2ccc(CN3CCN(C)CC3)cc2)cc1Nc1nccc(-c2cccnc2)n1 [Imatinib, reference compound]",apoptosis induction (impact on survival),[7],not on survival of Ba/F3 cells expressing T315I mutation
